Laboratory results as given in US10519211B2, “Compounds as peptidic GLP1/glucagon/GIP receptor agonists” (SANOFI, priority 2016, dated 2019).
Numbered stars: 1 amine (or outer) side, 2 acyl side, 3 side chain; on linkers, the order of the positions; unused ones are H or OH. Square brackets hold non-standard residues; d marks the D form. Side chains are listed from the residue outwards. Peptide text beside a SMILES is read from it. * marks the point of attachment. Adipoyl(4R-palmitoylamino) = CCCCCCCCCCCCCCCC(=O)N[C@H](CCC(=O)*)CC(=O)O; γGlu = O=C(O)[C@H](CCC(=O)[*:2])N[*:1]; Palmitoyl = CCCCCCCCCCCCCCCC(=O)*; AEEA = NCCOCCOCC(=O)O; Aib = CC(C)(N)C(=O)O

Experiments:
[1] = molecular target: T1, human GIP receptor (hGIP-R) (Homo sapiens, UniProt P48546); assay: cAMP response (HTRF) of HEK-293 cells stably expressing human GIP receptor; assay type: cell-based; details: Table 8; cAMP formation
T1 construct: expressed in transfected cells; host or cells: HEK-293
T1 sequence (P48546 22-466): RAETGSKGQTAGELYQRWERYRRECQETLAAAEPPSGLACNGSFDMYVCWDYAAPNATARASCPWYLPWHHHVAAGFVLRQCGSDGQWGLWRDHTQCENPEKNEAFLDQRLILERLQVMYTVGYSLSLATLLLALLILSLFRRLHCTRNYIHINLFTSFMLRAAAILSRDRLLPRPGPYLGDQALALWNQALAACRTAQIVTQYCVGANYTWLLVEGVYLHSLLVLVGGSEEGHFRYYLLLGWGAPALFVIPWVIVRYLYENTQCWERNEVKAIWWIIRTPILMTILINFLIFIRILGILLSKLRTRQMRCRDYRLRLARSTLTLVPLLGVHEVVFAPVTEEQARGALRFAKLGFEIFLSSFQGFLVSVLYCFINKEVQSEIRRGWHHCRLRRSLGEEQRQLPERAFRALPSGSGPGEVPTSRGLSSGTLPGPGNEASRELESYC
Method: cAMP content of cells was determined using a kit from Cisbio Corp. (cat. no. 62AM4PEJ) based on HTRF (Homogenous Time Resolved Fluorescence). For preparation, cells were split into T175 culture flasks and grown overnight to near confluency in medium (DMEM/10% FBS). Medium was then removed and cells washed with PBS lacking calcium and magnesium, followed by proteinase treatment with accutase (Sigma-Aldrich cat. no. A6964). Detached cells were washed and resuspended in assay buffer (1×HBSS; 20 mM HEPES, 0.1% BSA, 2 mM IBMX) and cellular density determined. They were then diluted to 400000 cells/ml and 25 μl-aliquots dispensed into the wells of 96-well plates. For measurement, 25 μl of test compound in assay buffer was added to the wells, followed by incubation for 30 minutes at room temperature.
Potencies of peptidic compounds at the GLP-1, glucagon and GIP receptors were determined by exposing cells expressing human glucagon receptor (hGlucagon R), human GIP receptor (hGIP-R) or human GLP-1 receptor (hGLP-1 R) to the listed compounds at increasing concentrations and measuring the formed cAMP as described in Methods.

[2] = Thioflavin T (ThT) assay for physical stability (fibrillation); assay type: physicochemical; details: 3 mg/ml, 100 mM acetate pH 4.5 with m-cresol, shaking at 37° C.
Method: Investigations were carried out to determine fibrillation tendencies under stress conditions by shaking at 37° C. within Fluoroskan Ascent FL.
For the tests in Fluoroskan Ascent FL, 200 μL sample were placed into a 96 well mictrotiter plate PS, flat bottom, Greiner Fluotrac No. 655076. Plates were sealed with Scotch Tape (Quiagen). Samples were stressed by continuous cycles of 10 s shaking at 960 rpm and 50 s rest period at 37° C. The kinetic was monitored by measuring fluorescence intensity every 20 minutes.
Peptides were diluted in a buffer system to a final concentration of 3 mg/ml. 20 μL of a 10.1 mM ThT solution in H2O were added to 2 mL of peptide solution to receive a final concentration of 100 μM ThT. For each sample eight replicates were tested.
Tht buffer system A) 100 mM Acetate pH 4.5 including m-cresol (100 mM Natriumacetat trihydrat, pH adjustment using 2N CH3COOH, 2.7 mg/mL m-cresol) Tht buffer system B) 100 mM citrate buffer pH 6.0
Lag time in hours in Thioflavin T (ThT) assay of peptide samples was determined in Tht buffer system A as described in Methods.

[3] = Chemical stability assessment (UPLC-UV, relative purity loss); assay type: physicochemical; details: 1 mg/ml, 25 mM acetate buffer pH 4.5 with m-cresol (buffer system A)
Method: Prior to the chemical stability measurement of a peptide batch, its purity was determined through UPLC/MS. For stability testing the target concentration was 1 mg pure compound/ml. Therefore solutions from solid samples were prepared in a buffer system with a concentration of 1 mg/mL compound based on the previously determined % purity:
Chemical stability buffer system A) 25 mM acetate buffer pH4.5, 3 mg/mL L-Methionine, 2.7 mg/mL m-cresol, 18 mg/mL Glycerol 85%
Peptide solutions were filtered through […] pore size and filled into aliquots under aseptic conditions. At starting point UPLC-UV was performed by injection of 2 μl of the undiluted sample.
For chemical stability testing, aliquots were stored for 28 days at Sand 40° C. After this time course the samples were centrifuged for 15 min at 2500 RCF. Then 2 μl of the undiluted supernatant were analysed with UPLC-UV.
The chemical stability was rated through the relative loss of purity calculated by the equation: [(purity at starting point)−(purity after 28 days at X° C.)]/(purity at starting point)]*100%
The purity is calculated as [(peak area peptide)/(total peak area)]*100%
Peptide samples were prepared in Chemical stability buffer system A and chemical stability was assessed as described in Methods.

[4] = Solubility assessment (UPLC-UV); assay type: physicochemical; details: acetate buffer pH 4.5, 2.7 mg/ml m-cresol (buffer system A), target 10 mg/ml
Method: Prior to the solubility measurement of a peptide batch, its purity was determined through UPLC/MS.
Therefore solutions from solid samples were prepared in a buffer systems with a concentration of 10 mg/mL compound based on the previously determined % purity:
Solubility buffer system A) Acetate Buffer pH 4.5, 100 mM sodium acetate trihydrate, 2.7 mg/ml m-Cresol
UPLC-UV was performed after 1 hour of gentle agitation from the supernatant, which was obtained after 15 min of centrifugation at 2500 RCF (relative centrifugal acceleration).
The solubility was determined by the comparison of the UV peak area of 2 μL-injection of a buffered sample diluted 1:10 with a standard curve of a reference peptide with known concentration. The different UV extinction coefficients of sample and reference peptide were calculated based on the different amino acid sequences and considered in the concentration calculation.
Peptide samples were prepared in solubility buffer system A and solubility was assessed as described in Methods.

[5] = Dynamic light scattering (DLS), hydrodynamic radius as surrogate for interaction parameter kD; assay type: physicochemical
Method: For every peptide solution, the hydrodynamic radius Rh and the diffusion constant D (related via the Stokes-Einstein equation) were determined as an average over triplicates. Both parameters were determined at different concentrations (e.g., Rh1 and D1: 1 mg/ml and Rh5 and D5: 5 mg/ml) in the same buffer system. The difference of these parameters between low and high peptide concentration is a surrogate for the DLS interaction parameter kD. Rh5<Rh1 or D5>D1 correspond to kD>0 and therefore to repulsive inter-particle interactions that result in improved physical (or colloidal) stability.
DLS buffer system A) 25 mM acetate buffer pH4.5, 3 mg/mL L-Methionine, 2.7 mg/mL m-cresol, 18 mg/mL Glycerol 85%
DLS Method C: DLS measurements were performed on a DynaPro Plate Reader II (Wyatt Technology, Santa Barbara, Calif., US) and using one of the following black, low volume, and non-treated plates: polystyrene 384 assay plate with clear bottom (Corning, N.Y., US), polystyrene 96 assay plate with clear bottom (Corning, N.Y., US), cyclo olefin polymer (COP) 384 assay plate with clear bottom (Aurora, Mont., US), or polystyrene 384 assay plate with clear bottom (Greiner Bio-One, Germany). The data were processed with the Dynamics software provided by Wyatt Technology. Parameters of the particle size distribution were determined with non-negatively constrained least squares (NNLS) methods using DynaLS algorithms. Measurements were taken at 25° C. with an 830 nm laser light source at an angle of 158°.
The hydrodynamic radius radius Rh of peptide samples was determined at different peptide concentrations (1 mg/ml and 5 mg/ml) in DLS buffer system A using DLS method C as described in Methods as surrogate for the DLS interaction parameter kD.

EC50 [1] [pM]	Lag time before increase [2] [h]	Chemical stability [relative purity loss 28 days 40° C.] (%) at pH 4.5 [3] [%]	solubility at 1 h [4] [mg/mL]	Delta Rh [nm] = Rh5 − Rh1 ([5]; DLS buffer system A pH 4.5) [nm]	Rh1 [nm] c= 1 mg/ml ([5]; hydrodynamic radius, 1 mg/ml, DLS buffer system A pH 4.5, DLS method C, 25° C.) [nm]	Rh5 [nm] c = 5 mg/ml ([5]; hydrodynamic radius, 5 mg/ml, DLS buffer system A pH 4.5, DLS method C, 25° C.) [nm]	Compound
5.6	>45	–	–	–	–	–	CCCCCCCCCCCCCCCC(=O)NCCOCCOCC(=O)N[C@@H](CCC(=O)N[C@@H](CCC(=O)NCCCC[C@H](NC(=O)[C@H](CC(C)C)NC(=O)[C@H](CCCCN)NC(=O)[C@H](CO)NC(=O)[C@H](CC(C)C)NC(=O)[C@H](CC(=O)O)NC(=O)[C@H](CO)NC(=O)[C@@H](NC(=O)[C@H](Cc1ccccc1)NC(=O)[C@@H](NC(=O)CNC(=O)[C@H](CCC(N)=O)NC(=O)C(C)(C)NC(=O)[C@@H](N)Cc1c[nH]cn1)[C@@H](C)O)[C@@H](C)O)C(=O)N[C@@H](CCC(=O)O)C(=O)N[C@@H](CCC(=O)O)C(=O)N[C@@H](CCC(N)=O)C(=O)N[C@@H](CCCNC(=N)N)C(=O)N[C@@H](CCC(N)=O)C(=O)NC(C)(C)C(=O)N[C@@H](CCC(=O)O)C(=O)N[C@@H](Cc1ccccc1)C(=O)N[C@H](C(=O)N[C@@H](CCC(=O)O)C(=O)N[C@@H](Cc1c[nH]c2ccccc12)C(=O)N[C@@H](CC(C)C)C(=O)N[C@@H](CCCCN)C(=O)N[C@@H](C)C(=O)NCC(=O)NCC(=O)N[C@@H](Cc1c[nH]cn1)C(=O)N1CCC[C@H]1C(=O)N[C@@H](CO)C(=O)NC(C)(C)C(=O)N[C@@H](CCCCN)C(=O)N1CCC[C@H]1C(=O)N1CCC[C@H]1C(=O)N1CCC[C@H]1C(=O)N[C@@H](CCCCN)C(N)=O)[C@@H](C)CC)C(=O)O)C(=O)O [SEQ ID NO: 18, H-Aib-Q-G-T-F-T-S-D-L-S-K-L-K[gGlu-gGlu-AEEA-Palm]-E-E-Q-R-Q-Aib-E-F-I-E-W-L-K-A-G-G-H-P-S-Aib-K-P-P-P-K-NH2] (H-H[Aib]QGTFTSDLSKLK([γGlu-γGlu-AEEA-Palmitoyl])EEQRQ[Aib]EFIEWLKAGGHPS[Aib]KPPPK-NH2)
–	>45	9.6	> 10.4	−0.1	2.8	2.7	CCCCCCCCCCCCCCCC(=O)N[C@H](CCC(=O)NCCOCCOCC(=O)N[C@@H](CCC(=O)NCCCC[C@H](NC(=O)[C@H](CC(C)C)NC(=O)[C@H](CCCCN)NC(=O)[C@H](CO)NC(=O)[C@H](CC(C)C)NC(=O)[C@H](CC(=O)O)NC(=O)[C@H](CO)NC(=O)[C@@H](NC(=O)[C@H](Cc1ccccc1)NC(=O)[C@@H](NC(=O)CNC(=O)[C@H](CCC(N)=O)NC(=O)C(C)(C)NC(=O)[C@@H](N)Cc1c[nH]cn1)[C@@H](C)O)[C@@H](C)O)C(=O)N[C@@H](CCC(=O)O)C(=O)N[C@@H](CCC(=O)O)C(=O)N[C@@H](CCC(N)=O)C(=O)N[C@@H](CCCNC(=N)N)C(=O)N[C@@H](CCC(N)=O)C(=O)NC(C)(C)C(=O)N[C@@H](CCC(=O)O)C(=O)N[C@@H](Cc1ccccc1)C(=O)N[C@H](C(=O)N[C@@H](CCC(=O)O)C(=O)N[C@@H](Cc1c[nH]c2ccccc12)C(=O)N[C@@H](CC(C)C)C(=O)N[C@@H](CCCCN)C(=O)N[C@@H](C)C(=O)N[C@H](C)C(=O)NCC(=O)N[C@@H](Cc1c[nH]cn1)C(=O)N1CCC[C@H]1C(=O)N[C@@H](CO)C(=O)NC(C)(C)C(=O)N[C@@H](CCCCN)C(=O)N1CCC[C@H]1C(=O)N1CCC[C@H]1C(=O)N1CCC[C@H]1C(=O)N[C@@H](CCCCN)C(N)=O)[C@@H](C)CC)C(=O)O)CC(=O)O [SEQ ID NO: 23, H-Aib-Q-G-T-F-T-S-D-L-S-K-L-K[gGlu-AEEA-gAAA-Palm]-E-E-Q-R-Q-Aib-E-F-I-E-W-L-K-A-dAla-G-H-P-S-Aib-K-P-P-P-K-NH2] (H-H[Aib]QGTFTSDLSKLK([γGlu-AEEA-Adipoyl(4R-palmitoylamino)])EEQRQ[Aib]EFIEWLKA[dA]GHPS[Aib]KPPPK-NH2)
